How the values were obtained:
[1] = test system: NIH-3T3 cells; test: Intracellular H2O2-eliminating activity (CM-H2DCF-DA fluorescence); format: cell-based; settings: Mus musculus, NIH3T3, glucose oxidase, concentration at 50% reduction of intracellular H2O2
Experimental: The activity of test compounds in present invention to eliminate intracellular H2O2 was measured as follows. NIH-3T3 cells (ATCC) were seeded in a 35-mm culture dish at 2×10^5 cells/well. After culture for 24 hours, cells were serum-starved with phenol red free-basal DMEM containing 0.5% FBS for 6 h. Starved NIH 3T3 cells were pretreated with compounds diluted with phenol red free-basal DMEM at concentrations ([…]) for 30 min, followed by treatment with 20 mU of glucose oxidase (Gox) for 30 min. A reactive oxygen species-sensitive fluorescence dye, carboxymethyl-dichlorofluorescein-diacetate (CM-H2DCF-DA), which was prepared in 1 mM DMSO stock and diluted 500 times in phenol red free-basal DMEM, was added to the cells and incubated for 5 min. Then, cells were quickly rinsed with basal medium. Images were taken at excitation 497 nm/emission 518 nm settings using a fluorescence microscope. Three images at 10× magnification per sample were obtained, and fluorescence intensities from 30 or more individual cells per image were averaged.
The intracellular H2O2-eliminating activity of test compounds in present invention was measured using a live-cell imaging fluorescence probe (CM-HaDCF-DA). H2O2-eliminating activity was measured depending on ascending concentrations of the test compound and expressed as the percent of activity compared to the untreated control group. EC50 represents the concentration of test compound at 50% reduction of intracellular H2O2.

[2] = test system: human pulmonary artery smooth muscle cell (PASMC); test: PDGF-induced proliferation assay, PASMC (PrxII siRNA); format: cell-based; settings: for Degree of PASMC proliferation: PDGF-BB 25 ng/mL, percent of untreated control; for IC50: Homo sapiens, PASMC, 50% growth inhibition, PDGF-stimulated
[3] = test system: human aortic endothelial cell (HAEC); test: VEGF-induced proliferation assay, HAEC (PrxII siRNA); format: cell-based; settings: for Degree of HAEC proliferation: VEGF-A 25 ng/mL, percent of untreated control; for EC50: Homo sapiens, Endothelial cell, effective concentration increasing cell proliferation by 50%, VEGF-stimulated
[4] = test system: Tyr 1175 phosphorylation of VEGF receptor-2 (VEGFR2) in HAEC; test: Immunoblot of VEGF-mediated signaling in PrxII knock-down HAEC; format: cell-based, human; settings: for Effect on phosphorylation of Tyr 1175 on VEGFR2: HAECs depleted of PrxII expression, FIG. 5

SMILES | EC50 [1] [nM] | Degree of PASMC proliferation ([2]; 2.5 nM) [%] | Degree of PASMC proliferation ([2]; 5 nM) [%] | Degree of PASMC proliferation ([2]; 10 nM) [%] | Degree of PASMC proliferation ([2]; 25 nM) [%] | Degree of PASMC proliferation ([2]; 50 nM) [%] | Degree of PASMC proliferation ([2]; 100 nM) [%] | IC50 [2] [nM] | Degree of HAEC proliferation ([3]; 2.5 nM) [%] | Degree of HAEC proliferation ([3]; 5 nM) [%] | Degree of HAEC proliferation ([3]; 10 nM) [%] | Degree of HAEC proliferation ([3]; 25 nM) [%] | Degree of HAEC proliferation ([3]; 50 nM) [%] | Degree of HAEC proliferation ([3]; 100 nM) [%] | EC50 [3] [nM] | Effect on phosphorylation of Tyr 1175 on VEGFR2 [4] | Concentrations at which phosphorylation of Tyr 1175 on VEGFR2 is significantly reduced ([4]; HAECs, PrxII knock-down, FIG. 4)
O=C1C2CSSC3(COCCN13)C(=O)N2Cc1ccccc1 (stereo not drawn) [Compound 8, 12-benzyltetrahydro-5H,10H-4,10a-(epiminomethano)[1,4]oxazino[3,4-c][1,2,4]dithia zepine-5,11-dione] | 6.57 | 57.7 | 41.7 | 24.8 | 5.7 | 0.0 | 0.0 | 3.52 | 107.3 | 147.3 | 186.3 | 204.8 | 157.0 | 161.6 | 5.04 | – | –
CN1C(=O)C2CSSC1(C)C(=O)N2Cc1ccc2ccccc2n1 (stereo not drawn) [Compound 5, 1,8-dimethyl-6-(quinolin-2-ylmethyl)-2,3-dithia-6,8-diazabicyclo[3.2.2]nonane-7,9-dione] | 7.77 | 71.3 | 48.3 | 37.5 | 26.8 | 1.9 | 2.5 | 5.64 | 112.2 | 129.7 | 165.6 | 191.6 | 172.7 | 180.1 | 5.31 | strongly abolish the phosphorylation | –
CN1C(=O)C2(C)SSCC1C(=O)N2C (stereo not drawn) [Compound 1, 1,6,8-trimethyl-2,3-dithia-6,8-diazabicyclo[3.2.2]nonane-7,9-dione] | 8.25 | 70.8 | 49.8 | 29.4 | 14.3 | 0.0 | 0.0 | 5.01 | 113.8 | 143.7 | 162.9 | 187.8 | 164.7 | 170.2 | 4.93 | strongly abolish the phosphorylation | above 2.5 nM
CCN1C(=O)C2(C)SSCC1C(=O)N2CC (stereo not drawn) [Compound 20, 6,8-diethyl-1-methyl-2,3-dithia-6,8-diazabicyclo[3.2.2]nonane-7,9-dione] | – | 82.2 | 51.5 | 31.6 | 21.1 | 7.3 | 5.2 | 6.17 | 116.4 | 120.3 | 136.3 | 155.9 | 169.5 | 187.6 | 10.2 | strongly abolish the phosphorylation | –

From US20260008784A1 (VASTHERA CO., LTD., priority 2022, published 2026)
